Source: article PMC9820411, “Late-Stage Functionalization through Click Chemistry Provides GLUT5-Targeting Glycoconjugate as a Potential PET Imaging Probe” (International Journal of Molecular Sciences, 2022)

Molecular target: T1, GLUT5 (Homo sapiens, UniProt P22732)
T1 construct: gene SLC2A5
T1 sequence (P22732 1-501): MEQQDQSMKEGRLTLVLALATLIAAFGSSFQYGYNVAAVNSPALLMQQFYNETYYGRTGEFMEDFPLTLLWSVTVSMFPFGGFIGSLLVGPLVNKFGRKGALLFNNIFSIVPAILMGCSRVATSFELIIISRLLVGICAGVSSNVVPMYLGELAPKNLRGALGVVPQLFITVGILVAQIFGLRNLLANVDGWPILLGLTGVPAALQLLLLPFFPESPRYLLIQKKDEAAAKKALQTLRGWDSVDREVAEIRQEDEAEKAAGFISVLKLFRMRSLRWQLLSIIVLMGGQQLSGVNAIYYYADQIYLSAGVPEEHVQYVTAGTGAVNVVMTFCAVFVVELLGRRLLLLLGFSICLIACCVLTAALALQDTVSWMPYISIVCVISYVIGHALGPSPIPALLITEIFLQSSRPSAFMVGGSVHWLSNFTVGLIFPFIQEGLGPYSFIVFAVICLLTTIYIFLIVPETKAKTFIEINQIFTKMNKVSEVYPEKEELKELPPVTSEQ
Experiment: competition with ManCou-F uptake in MCF7 cells
Type: cell-based

OC[C@H]1OC(O)(CO)[C@@H](O)[C@@H]1O (stereo partly shown) [fructose]
IC50: ~28 mM
